From patent publication US20250235508A1, “MODIFIED THERAPEUTIC AGENTS AND COMPOSITIONS THEREOF” (THE SCRIPPS RESEARCH INSTITUTE, priority 2015, published 2025) come the findings set out here.

Starred links: 1 amine or outer side, 2 acyl side, 3 side chain; linkers in the order of their positions; H or OH if unused. Positions of bridges follow the written chain, without caps; N, C: chain ends. Non-standard residues stand in square brackets, D forms with d. Residues, ends and D or L forms follow the SMILES beside them. Glutaryl = O=C(CCCC(=O)[*:2])[*:1]

In series [1] the target is T1, human glucagon-like peptide 1 receptor (GLP-1R) (Homo sapiens, UniProt P43220).
T1 construct: expressed in transfected cells; host or cells: HEK293 (CRE-HEK293)
T1 sequence (P43220 24-463): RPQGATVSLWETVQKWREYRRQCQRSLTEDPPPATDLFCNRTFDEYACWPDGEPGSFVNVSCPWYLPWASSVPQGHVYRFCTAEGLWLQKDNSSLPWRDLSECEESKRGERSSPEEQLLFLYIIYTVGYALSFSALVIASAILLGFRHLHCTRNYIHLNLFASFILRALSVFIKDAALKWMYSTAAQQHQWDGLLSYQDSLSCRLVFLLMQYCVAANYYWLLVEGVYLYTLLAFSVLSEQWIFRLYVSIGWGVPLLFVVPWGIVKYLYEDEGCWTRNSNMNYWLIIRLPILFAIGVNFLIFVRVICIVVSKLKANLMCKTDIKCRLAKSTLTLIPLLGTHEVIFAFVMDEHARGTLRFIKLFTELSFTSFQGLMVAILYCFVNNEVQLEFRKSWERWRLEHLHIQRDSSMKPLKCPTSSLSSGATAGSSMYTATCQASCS
Kind of series: GLP-1R receptor-mediated CRE Luc reporter assay (receptor-mediated cAMP synthesis). The class given is cell-based. To be noted: HEK293-GLP-1R-CRE cells, luciferase reporter. On the procedure: HEK293 cells were infected with lent virus encoding firefly luciferase gene under the control of CRE promoter, as described in the manual (Qiagen, Netherlands) and then were selected using 1 μg/mL puromycin (Life technologies, Carlsbad) for 1 week. The survived cells were named as CRE-HEK293, expanded and then transfected with a G418 selective mammalian expression plasmid encoding human GCGR, GLP-1R, GIPR or GLP-2R. […] Single colony stable cell lines overexpressing both CRE-luciferase and GCGR, GLP-1R, GIPR, or GLP-2R were then established for in vitro activity assays. These four stable cell lines were named as HEK293-GCGR-CRE, HEK293-GLP-1R-CRE, HEK293-GIPR-CRE, and HEK293-GLP-2R-CRE. […] Cells were treated with different peptides in a dose dependent manner.
(In a reporter assay the amount or activity of a reporter protein is the signal.)

The target of series [2] is T2, human glucagon receptor (GCGR) (Homo sapiens, UniProt P47871).
T2 construct: expressed in transfected cells; host or cells: HEK293 (CRE-HEK293)
T2 sequence (P47871 26-477): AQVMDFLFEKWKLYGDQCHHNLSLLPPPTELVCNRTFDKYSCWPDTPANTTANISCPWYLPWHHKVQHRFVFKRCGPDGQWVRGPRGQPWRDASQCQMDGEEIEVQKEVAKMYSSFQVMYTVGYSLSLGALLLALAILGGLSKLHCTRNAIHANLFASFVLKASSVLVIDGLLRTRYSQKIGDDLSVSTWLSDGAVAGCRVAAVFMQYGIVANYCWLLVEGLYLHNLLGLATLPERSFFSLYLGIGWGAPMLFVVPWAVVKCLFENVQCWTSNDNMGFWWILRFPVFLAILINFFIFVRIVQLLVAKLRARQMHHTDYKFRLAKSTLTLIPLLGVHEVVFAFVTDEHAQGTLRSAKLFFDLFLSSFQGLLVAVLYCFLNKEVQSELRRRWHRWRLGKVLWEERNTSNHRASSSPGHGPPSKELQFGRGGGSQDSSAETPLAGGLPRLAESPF
Kind of series: GCGR receptor-mediated CRE Luc reporter assay (receptor-mediated cAMP synthesis). The following applies: HEK293-GCGR-CRE cells, luciferase reporter. The class given is cell-based. As for the experimental part:
(§1) CREB responsive luciferase stable HEK 293 cell line overexpressing human glucagon receptor (GCGR), glucagon-like peptide 1 receptor (GLP-1R), glucose-dependent insulinotropic polypeptide receptor (GIPR), glucagon-like peptide 2 receptor (GLP-2R) was generated as follows. HEK293 cells were infected with lent virus encoding firefly luciferase gene under the control of CRE promoter, as described in the manual (Qiagen, Netherlands) and then were selected using 1 μg/mL puromycin (Life technologies, Carlsbad) for 1 week. The survived cells were named as CRE-HEK293, expanded and then transfected with a G418 selective mammalian expression plasmid encoding human GCGR, GLP-1R, GIPR or GLP-2R. In brief, GCGR, GLP-1R, GIPR, or GLP-2R plasmid was transfected into CRE-HEK293 cells using Lipofectamine 2000 and selected with 400 μg/mL geneticin (Life technologies, Carlsbad, CA). Single colony stable cell lines overexpressing both CRE-luciferase and GCGR, GLP-1R, GIPR, or GLP-2R were then established for in vitro activity assays. […] On the next day, 10 μl of Bright-Glo reagent (Promega, Madison, WI) were added into each well and firefly luminescence was determined using an Envision multilabel plate reader (PerkinElmer, Waltham, MA). EC50 of each peptide was calculated using GraphPad Prism 6 software (GraphPad, San Diego, CA). […]

Series [3] in a line: in vivo. To be noted: female, CD-1, mouse, 0.3 mg/kg.
Experimental: (§2) Female CD-1 mice obtained from Charles River Limited were used after overnight food deprivation for in vivo PK study. Peptides were dissolved in pH adjusted Phosphate buffered saline (PBS). 100 μL of each peptide (0.3 mg/kg) was administrated into each mouse through either i.v. or s.c route. Food was provided to mice immediately after bleeding at 30 minute. Blood were extracted into heparinized tubes and centrifuged at 3,000×g for 15 min. The resulting supernatant plasma were then stored at −80° C. for activity assays. The concentrations of peptides in plasma at each time point were determined by activity assay described above and in vivo half-life of each peptide was calculated by using Winnonlin Phoenix software (Pharsight Corp, St. Louis, MO).
Series [4] concerns the target T3, human glucagon-like peptide 2 receptor (GLP-2R) (Homo sapiens, UniProt O95838).
T3 construct: expressed in transfected cells; host or cells: HEK293 (CRE-HEK293)
T3 sequence (O95838 1-553): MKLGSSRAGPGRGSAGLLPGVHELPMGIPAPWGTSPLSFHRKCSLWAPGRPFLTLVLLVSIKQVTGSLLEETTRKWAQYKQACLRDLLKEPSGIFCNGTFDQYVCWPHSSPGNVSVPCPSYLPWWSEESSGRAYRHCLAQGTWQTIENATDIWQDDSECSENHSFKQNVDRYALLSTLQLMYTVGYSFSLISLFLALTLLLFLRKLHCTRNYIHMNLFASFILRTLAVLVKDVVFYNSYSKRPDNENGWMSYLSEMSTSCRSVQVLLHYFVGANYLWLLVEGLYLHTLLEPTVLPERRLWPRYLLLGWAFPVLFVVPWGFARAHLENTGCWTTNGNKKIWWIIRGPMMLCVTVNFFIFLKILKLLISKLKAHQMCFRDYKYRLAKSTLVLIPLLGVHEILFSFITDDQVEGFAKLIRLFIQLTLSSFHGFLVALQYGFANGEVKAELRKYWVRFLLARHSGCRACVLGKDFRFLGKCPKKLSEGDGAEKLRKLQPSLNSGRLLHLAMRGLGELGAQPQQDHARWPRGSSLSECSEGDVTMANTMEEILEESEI
Kind of series: GLP-2R receptor-mediated CRE Luc reporter assay (receptor-mediated cAMP synthesis). It counts as cell-based. To be noted: HEK293-GLP-2R-CRE cells, luciferase reporter. As for the experimental part: as §1

Series [5] can be described thus: In vivo pharmacokinetic (PK) study in CD-1 mice. To be noted: female, CD-1, mouse, plasma, 0.3 mg/kg.
Experimental: as §2

With `CC[C@H](C)[C@@H]1NC(=O)[C@H](Cc2ccccc2)NC(=O)[C@H](CCC(=O)O)NC(=O)[C@H](CCCCN)NC(=O)[C@H](C)NC(=O)[C@H](C)NC(=O)[C@@H](NC(=O)[C@H](CCC(=O)O)NC(=O)[C@H](CC(=O)O)NC(=O)[C@H](CC(C)C)NC(=O)[C@H](Cc2ccc(O)cc2)NC(=O)[C@H](CCCCN)NC(=O)[C@H](CO)NC(=O)[C@H](Cc2ccc(O)cc2)NC(=O)[C@H](CC(=O)O)NC(=O)[C@H](CO)NC(=O)[C@@H](NC(=O)[C@H](Cc2ccccc2)NC(=O)[C@@H](NC(=O)CNC(=O)[C@H](CCC(N)=O)NC(=O)[C@@H](CO)NC(=O)[C@@H](N)Cc2c[nH]cn2)[C@@H](C)O)[C@@H](C)O)CCCCNC(=O)CN(C(=O)CCNC(=O)CCOCCOCCOCCNC(=O)CCCCCCCCCCCCCCCCC(=O)O)CC(=O)NCCCC[C@@H](C(=O)N[C@@H](Cc2c[nH]c3ccccc23)C(=O)N[C@@H](CC(C)C)C(=O)N[C@@H](CC(C)C)C(=O)N[C@@H](CCCNC(=N)N)C(=O)N[C@@H](C)C(N)=O)NC1=O` [mTA4], the EC50 – broadly, the concentration giving half of the maximal effect – was 0.03 nM in series [1] and 0.15 nM in series [2]. For the same compound, the half-life (as a rule, the time in which the quantity being followed falls by half) in series [3] (iv) is 5.7 h; in series [3] (sc), 8 h.
Take `CC[C@H](C)[C@@H]1NC(=O)[C@H](Cc2ccccc2)NC(=O)[C@H](CCC(=O)O)NC(=O)[C@H](CCCCN)NC(=O)[C@H](C)NC(=O)[C@H](C)NC(=O)[C@@H](NC(=O)[C@H](CCC(=O)O)NC(=O)[C@H](CC(=O)O)NC(=O)[C@H](CC(C)C)NC(=O)[C@H](Cc2ccc(O)cc2)NC(=O)[C@H](CCCCN)NC(=O)[C@H](CO)NC(=O)[C@H](Cc2ccc(O)cc2)NC(=O)[C@H](CC(=O)O)NC(=O)[C@H](CO)NC(=O)[C@@H](NC(=O)[C@H](Cc2ccccc2)NC(=O)[C@@H](NC(=O)CNC(=O)[C@H](CCC(N)=O)NC(=O)[C@@H](CO)NC(=O)[C@@H](N)Cc2c[nH]cn2)[C@@H](C)O)[C@@H](C)O)CCCCNC(=O)CCCC(=O)NCCCC[C@@H](C(=O)N[C@@H](Cc2c[nH]c3ccccc23)C(=O)N[C@@H](CC(C)C)C(=O)N[C@@H](CC(C)C)C(=O)N[C@@H](CC(N)=O)C(=O)NCC(=O)NCC(=O)N2CCC[C@H]2C(=O)N[C@@H](CO)C(=O)N[C@@H](CO)C(=O)NCC(=O)N[C@@H](C)C(=O)N2CCC[C@H]2C(=O)N2CCC[C@H]2C(=O)N2CCC[C@H]2C(=O)N[C@@H](CO)C(N)=O)NC1=O` [mTA5] (H-H[dS]QGTFTSDYSKYLDEKAAKEFIKWLLNGGPSSGAPPPS-NH2; linker 17-24 via Glutaryl): the EC50 turned out to be 0.02 nM in series [1] and 0.07 nM in series [2].
In series [4], `CCCCCCCCCCCCCC(=O)NCCOCCOCCOCCC(=O)NCCC(=O)N1CC(=O)NCCCC[C@@H](C(=O)N[C@@H](C)C(=O)N[C@@H](CCCNC(=N)N)C(=O)N[C@@H](CC(=O)O)C(=O)N[C@@H](Cc2ccccc2)C(=O)N[C@H](C(=O)N[C@@H](CC(N)=O)C(=O)N[C@@H](Cc2c[nH]c3ccccc23)C(=O)N[C@@H](CC(C)C)C(=O)N[C@H](C(=O)N[C@@H](CCC(N)=O)C(=O)N[C@H](C(=O)N[C@@H](CCCCN)C(=O)N[C@H](C(=O)N[C@H](C(=O)N[C@@H](CC(=O)O)C(N)=O)[C@@H](C)O)[C@@H](C)CC)[C@@H](C)O)[C@@H](C)CC)[C@@H](C)CC)NC(=O)[C@H](CC(C)C)NC(=O)[C@H](CC(N)=O)NC(=O)[C@H](CC(=O)O)NC(=O)[C@H](CC(C)C)NC(=O)[C@H]([C@@H](C)CC)NC(=O)[C@H]([C@@H](C)O)NC(=O)[C@@H](NC(=O)[C@H](CCSC)NC(=O)[C@H](CCC(=O)O)NC(=O)[C@H](CC(=O)O)NC(=O)[C@H](CO)NC(=O)[C@H](Cc2ccccc2)NC(=O)[C@H](CO)NC(=O)CNC(=O)[C@H](CC(=O)O)NC(=O)CNC(=O)[C@@H](N)Cc2c[nH]cn2)CCCCNC(=O)C1` [mTA7] came in with an EC50 of 0.068 nM. For the same compound, the half-life in series [5] (iv) was found to be 3 h; in series [5] (sc), 4 h.
